In brackets after ≈: the same amount, converted by molar mass.
Tests used:
HOP-92 = assay: Growth inhibition of human HOP92 cells assessed as cell growth at 10 uM incubated for 48 hrs by sulforhodamine B assay relative to control; assay type: functional; settings: HOP-92, 48 h, read-out: Activity
EKVX = assay: Growth inhibition of human EKVX cells assessed as cell growth at 10 uM incubated for 48 hrs by sulforhodamine B assay relative to control; assay type: functional; settings: read-out: Activity
MOLT-4 = assay: Growth inhibition of human MOLT4 cells assessed as cell growth at 10 uM incubated for 48 hrs by sulforhodamine B assay relative to control; assay type: functional; settings: MOLT-4, 48 h, read-out: Activity
SK-OV-3 = assay: Growth inhibition of human SKOV3 cells assessed as cell growth at 10 uM incubated for 48 hrs by sulforhodamine B assay relative to control; assay type: functional; settings: SK-OV-3, 48 h, read-out: Activity
K562 = assay: Growth inhibition of human K562 cells assessed as cell growth at 10 uM incubated for 48 hrs by sulforhodamine B assay relative to control; assay type: functional; settings: K562, 48 h, read-out: Activity
SF-295 = assay: Growth inhibition of human SF295 cells assessed as cell growth at 10 uM incubated for 48 hrs by sulforhodamine B assay relative to control; assay type: functional; settings: SF-295, 48 h, read-out: Activity
HCT-15 = assay: Growth inhibition of human HCT15 cells assessed as cell growth at 10 uM incubated for 48 hrs by sulforhodamine B assay relative to control; assay type: functional; settings: HCT-15, 48 h, read-out: Activity
SNB-75 = assay: Growth inhibition of human SNB75 cells assessed as cell growth at 10 uM incubated for 48 hrs by sulforhodamine B assay relative to control; assay type: functional; settings: SNB-75, 48 h, read-out: Activity
HL-60(TB) = assay: Growth inhibition of human HL-60(TB) cells assessed as cell growth at 10 uM incubated for 48 hrs by sulforhodamine B assay relative to control; assay type: functional; settings: HL-60, 48 h, read-out: Activity
SK-MEL-28 = assay: Growth inhibition of human SK-MEL-28 cells assessed as cell growth at 10 uM incubated for 48 hrs by sulforhodamine B assay relative to control; assay type: functional; settings: SK-MEL-28, 48 h, read-out: Activity
ACHN [1] = assay: Growth inhibition of human ACHN cells assessed as cell growth at 10 uM incubated for 48 hrs by sulforhodamine B assay relative to control; assay type: functional; settings: read-out: Activity
TK-10 = assay: Growth inhibition of human TK10 cells assessed as cell growth at 10 uM incubated for 48 hrs by sulforhodamine B assay relative to control; assay type: functional; settings: TK-10, 48 h, read-out: Activity
OVCAR-5 = assay: Growth inhibition of human OVCAR5 cells assessed as cell growth at 10 uM incubated for 48 hrs by sulforhodamine B assay relative to control; assay type: functional; settings: OVCAR-5, 48 h, read-out: Activity
U-937 = assay: Cytotoxicity against human U937 cells after 72 hrs by MTT assay; assay type: functional; settings: U-937, 72 h, read-out: LC50 (the source's name)
OVCAR-4 [2] = assay: Growth inhibition of human OVCAR4 cells assessed as cell growth at 10 uM incubated for 48 hrs by sulforhodamine B assay relative to control; assay type: functional; settings: OVCAR-4, 48 h, read-out: Activity
Hs-578T = assay: Growth inhibition of human Hs 578T cells assessed as cell growth at 10 uM incubated for 48 hrs by sulforhodamine B assay relative to control; assay type: functional; settings: read-out: Activity
MDA-MB-435 = assay: Growth inhibition of human MDA-MB-435 cells assessed as cell growth at 10 uM incubated for 48 hrs by sulforhodamine B assay relative to control; assay type: functional; settings: MDA-MB-435, 48 h, read-out: Activity
MCF7 = assay: Growth inhibition of human MCF7 cells assessed as cell growth at 10 uM incubated for 48 hrs by sulforhodamine B assay relative to control; assay type: functional; settings: MCF7, 48 h, read-out: Activity
SK-MEL-5 = assay: Growth inhibition of human SK-MEL-5 cells assessed as cell growth at 10 uM incubated for 48 hrs by sulforhodamine B assay relative to control; assay type: functional; settings: SK-MEL-5, 48 h, read-out: Activity
Leishmania panamensis = assay: Antileishmanial activity against EpiR/GFP fused Leishmania panamensis MHOM/CO/87/UA140 intracellular amastigotes infected in human […] cells after 72 hrs by flow cytometric method; assay type: functional, organism-based; settings: MHOM/CO/87/UA140, 72 h
Plasmodium falciparum = assay: Antimalarial activity against chloroquine-sensitive Plasmodium falciparum 3D7 incubated for 48 hrs by malstat reagent based LDH release assay; assay type: functional, organism-based; settings: 3D7, 48 h
HOP-62 = assay: Growth inhibition of human HOP62 cells assessed as cell growth at 10 uM incubated for 48 hrs by sulforhodamine B assay relative to control; assay type: functional; settings: HOP-62, 48 h, read-out: Activity
SF-539 = assay: Growth inhibition of human SF539 cells assessed as cell growth at 10 uM incubated for 48 hrs by sulforhodamine B assay relative to control; assay type: functional; settings: SF-539, 48 h, read-out: Activity
COLO 205 = assay: Growth inhibition of human COLO205 cells assessed as cell growth at 10 uM incubated for 48 hrs by sulforhodamine B assay relative to control; assay type: functional; settings: COLO 205, 48 h, read-out: Activity
SR = assay: Growth inhibition of human SR cells assessed as cell growth at 10 uM incubated for 48 hrs by sulforhodamine B assay relative to control; assay type: functional; settings: read-out: Activity
DU-145 = assay: Growth inhibition of human DU145 cells assessed as cell growth at 10 uM incubated for 48 hrs by sulforhodamine B assay relative to control; assay type: functional; settings: DU-145, 48 h, read-out: Activity
CAKI-1 = assay: Growth inhibition of human Caki1 cells assessed as cell growth at 10 uM incubated for 48 hrs by sulforhodamine B assay relative to control; assay type: functional; settings: CAKI-1, 48 h, read-out: Activity
NCI-H226 = assay: Growth inhibition of human NCI-H226 cells assessed as cell growth at 10 uM incubated for 48 hrs by sulforhodamine B assay relative to control; assay type: functional; settings: NCI-H226, 48 h, read-out: Activity
Trypanosoma cruzi = assay: Antitrypanosomal activity against Trypanosoma cruzi Tulahuen amastigote forms infected in human U937 cells after 72 hrs by beta-galactosidase reporter gene assay; assay type: functional, organism-based; settings: U-937, 72 h
UACC-257 = assay: Growth inhibition of human UACC257 cells assessed as cell growth at 10 uM incubated for 48 hrs by sulforhodamine B assay relative to control; assay type: functional; settings: UACC-257, 48 h, read-out: Activity
IGROV-1 = assay: Growth inhibition of human IGROV1 cells assessed as cell growth at 10 uM incubated for 48 hrs by sulforhodamine B assay relative to control; assay type: functional; settings: IGROV-1, 48 h, read-out: Activity
HT-29 = assay: Growth inhibition of human HT-29 cells incubated for 48 hrs by sulforhodamine B assay; assay type: functional; settings: HT-29, 48 h
OVCAR-4 [3] = assay: Growth inhibition of human OVCAR4 cells incubated for 48 hrs by sulforhodamine B assay; assay type: functional; settings: OVCAR-4, 48 h
ACHN [4] = assay: Growth inhibition of human ACHN cells incubated for 48 hrs by sulforhodamine B assay; assay type: functional
[5] = read-out: LC50 (the source's name)

SMILES	growth at 10 µM (HOP-92) [%]	growth at 10 µM (EKVX) [%]	growth at 10 µM (SK-OV-3) [%]	growth at 10 µM (K562) [%]	growth at 10 µM (SF-295) [%]	growth at 10 µM (HCT-15) [%]	growth at 10 µM (SNB-75) [%]	growth at 10 µM (HL-60(TB)) [%]	growth at 10 µM (SK-MEL-28) [%]	growth at 10 µM (ACHN [1]) [%]	growth at 10 µM (TK-10) [%]	growth at 10 µM (OVCAR-5) [%]	growth at 10 µM (OVCAR-4 [2]) [%]	growth at 10 µM (Hs-578T) [%]	growth at 10 µM (MDA-MB-435) [%]	growth at 10 µM (MCF7) [%]	growth at 10 µM (SK-MEL-5) [%]	growth at 10 µM (HOP-62) [%]	growth at 10 µM (SF-539) [%]	growth at 10 µM (COLO 205) [%]	also measured
Cc1ccc2[nH]c(=O)c(C3CNC(=O)c4ccccc4N3)cc2c1 (centres undefined)	110	102	110	111	103	105	97.4	107	108	103	104	92.9	108	105	108	102	98.6	97.1	96.5	107	growth at 10 µM (MOLT-4): 113%; CC50 (U-937): 52.8 µg/mL (≈ 165 µM); EC50 (Leishmania panamensis): 22.9 µg/mL (≈ 71.8 µM); EC50 (Plasmodium falciparum): 60.9 µg/mL (≈ 191 µM); growth at 10 µM (SR): 133%; growth at 10 µM (DU-145): 106%; growth at 10 µM (CAKI-1): 92.1%; growth at 10 µM (NCI-H226): 109%; EC50 (Trypanosoma cruzi): 46.3 µg/mL (≈ 145 µM)
O=C1NCC(c2cc3ccc(Cl)cc3[nH]c2=O)Nc2ccccc21 (centres undefined)	74	95.2	77.8	124	107	103	84.3	111	105	101	83	97.7	94	113	104	97.4	102	81.3	95	94.9	growth at 10 µM (UACC-257): 78.4%; CC50 (U-937): > 200 µg/mL; EC50 (Leishmania panamensis): 77.9 µg/mL (≈ 229 µM); EC50 (Plasmodium falciparum): 59.3 µg/mL (≈ 175 µM); growth at 10 µM (SR): 115%; growth at 10 µM (DU-145): 110%; growth at 10 µM (IGROV-1): 96.5%; growth at 10 µM (CAKI-1): 101%; growth at 10 µM (NCI-H226): 79.7%; EC50 (Trypanosoma cruzi): 86 µg/mL (≈ 253 µM)
CCCCOc1nc2ccccc2cc1C1CNC(=O)c2ccccc2N1 (centres undefined)	48.9	33	14.8	12.8	-5.68	15.3	3.14	-8.72	45.8	46.7	34.3	55.3	47.7	34.1	-63.8	21.2	15.6	23	-25.5	9.84	growth at 10 µM (UACC-257): 57.2%; GI50 (HT-29): 3.21 µM; TGI (HT-29): 11.1 µM; CC50 (HT-29; [5]): 67.7 µM; GI50 (OVCAR-4 [3]): 5.38 µM; TGI (OVCAR-4 [3]): 31.8 µM; CC50 (OVCAR-4 [3]; [5]): > 100 µM; GI50 (ACHN [4]): 3.92 µM; TGI (ACHN [4]): 17.1 µM; CC50 (ACHN [4]; [5]): 5.95 µM; growth at 10 µM (SR): 19.8%; growth at 10 µM (DU-145): 10.7%; growth at 10 µM (IGROV-1): 38%; growth at 10 µM (CAKI-1): 42.6%; growth at 10 µM (NCI-H226): 0.7%
